We go through one compound from patent publication US5401777A, “Use of preparations of curcuma plants” (priority 1992, dated 1995).

One data set concerns stomach mucosa. The following applies: oral, daily doses of 100 mg/kg over 6 days; Prasad et al. 1976; cited from earlier work.
For data set [1], the system named is histamine-induced stomach ulcers. The following applies: guinea pigs; Bhatia et al. 1964; cited from earlier work.
Data set [2] deals with formation of peroxidized arachidonic acid products. Kind of data set: inhibition of Fe/ascorbate-induced formation of peroxidized arachidonic acid products in the cell-free system. The format is biochemical. From the text: (d) the formation of peroxidized arachidonic acid products in the cell-free system with an IC50 of approx. 1 μmol/l.
The subject of data set [3] is experimental stomach ulcers. As to conditions: rats; cited from earlier work.

For the compound `COc1cc(/C=C/C(=O)CC(=O)/C=C/c2ccc(O)c(OC)c2)ccc1O` [curcumin], in the data set with stomach mucosa, the “effect of high doses on the stomach mucosa” value is “damaged the stomach mucosa”. In addition, in data set [1], the “protective effect against histamine-induced stomach ulcers” value is listed as “did not find any protective effect”. In addition, the “concentration in which the antioxidative effect is already achieved” value in data set [2] was 1 μm. For the same compound, the “effect on experimental stomach ulcers” value in data set [3] was “does not cure”.
